Source: a melting point compilation (Tetko et al.; mined from patent text by program, amines drawn as free bases though some values may be those of a salt)

Compound | melting point [°C]
Cc1ccc2c(Br)c(Br)sc2c1 | 67.5 to 68.5
CC1=NC(C)(C)SC1=NOC(=O)N(C)SN(C)C(=O)F | 77 to 79
O=C(NCc1ccccn1)c1ccc(C(F)(F)F)cc1C(F)(F)F | 112 to 113
COc1nc2c(Cl)c(Cl)c(Cl)c(Cl)c2n1COC(CO)CO | 192
CC(=Cc1cc(O)c(O)c([N+](=O)[O-])c1)C(C)O (stereo unspecified) | 102 to 104
COC(=O)c1ccc(/C=C/C(=O)NOC2CCCCO2)cc1 (stereo unspecified) | 133
CC(C)(C)OC(=O)N1CCC2(CC1)C(=O)NCN2c1ccccc1 | 213 to 214
COn1nnc2cc(Cn3ccnc3)ccc21 | 94.3
O=C1Nc2ccc(Cl)cc2SC1c1ccc(Cl)cc1 (stereo unspecified) | 230 to 234
N#CC(=Cc1cc(F)ccc1[N+](=O)[O-])C(N)=O | 162 to 166
CN(Cc1cc(C(F)(F)F)cc(C(F)(F)F)c1)C(=O)c1c(-c2ccc(F)cc2)c2c(c(=O)n1C)CNCC2 | 178 to 180
CC(C)CC(NC(=O)C(Cc1c[nH]cn1)NC(=O)C(Cc1cccc2ccccc12)NC(=O)OCc1ccccc1)C(O)CC(=O)O (stereo unspecified) | 191 to 192
COc1cc(C(O)CCCc2ccccc2)ccc1OCc1ccccc1 (stereo unspecified) | 71 to 73
C[C@@H]1Cc2cc([N+](=O)[O-])sc2[C@H](C)N1CCNC(=O)c1ccc([N+](=O)[O-])cc1 (relative stereo) | 155 to 156
COC(=O)c1ccc(S(C)(=O)=O)c(-c2ccon2)c1Cl | 145 to 147
CC(CC(=O)O)NC(=O)OCC1c2ccccc2-c2ccccc21 (stereo unspecified) | 135 to 143
COC(=O)c1cc(O)nn1C1CCCCC1 | 195 to 196
CC=CCNc1cc(C(=O)O)cc(S(N)(=O)=O)c1-c1ccccc1 | 186 to 187

Compound | melting point [°C]
CCOCCNC(=O)c1ccn2nc(-c3ccccc3)c(-c3ccc(=O)n(C(C)C)n3)c2c1 | 149 to 150
CCOC1=CC(=O)C(C(=O)OC)C(c2ccc(C)cc2)C1 (stereo unspecified) | 124 to 127
CN(C)C(=O)CCc1c2n(c(=O)c3ccccc13)CCc1ccccc1-2 | 192 to 194
O=C(CS(=O)(=O)c1ccc(Cl)cc1C(=O)O)c1ccccc1 | 170 to 171
O=C(O)c1cc(-c2ccc(Cl)cc2)n(Cc2ccc(Cl)cc2Cl)n1 | 185
CCCCCCCCCCCC1=NC(=Cc2[nH]c(-c3ccc[nH]3)cc2OCC)C=C1 | 94 to 96
CCOC(=O)NN(C)C(=S)Nc1ccc(Cl)cc1F | 151
COc1ccc(/C=C/c2ccncc2)cc1OC1CCCC1 | 108
Cc1csc(C)c1S(=O)(=O)Cl | 79
CC(Cn1cnnn1)n1nnc2cc3c(=O)n(C4CC4)nnc3cc2c1=O (stereo unspecified) | 233 to 235
Cc1ccncc1-n1nc(C)c(CC(=O)OCC2CC2)c1-c1ccccc1 | 87
CCc1cc(SCc2ccc(-c3ccccc3C#N)cc2)n2nccc2n1 | 153 to 155
CCn1ncc2c(NCC3CCCCC3)c3cc(C(=O)O)ccc3nc21 | 240
Cc1ccc(Cl)c(Nc2ccccc2C(N)=O)c1Cl | 185 to 187
C=C1CC2C(CCC3(C)C(OC(C)=O)CCC23)C2(C)CCC(=O)C=C12 (stereo unspecified) | 138 to 140
O=C(NN1CCc2ccccc2C1)Oc1ccc2c(c1)CN(Nc1ccncc1)C2 | 162 to 163
CCC(=O)NN=C(C)c1cnccn1 | 181

Continued, values first:

melting point [°C] | Compound
54 to 55 | Cc1cc([N+](=O)[O-])c(NC(C)C)c([N+](=O)[O-])c1C(C)C
226 | CCNS(=O)(=O)c1cccc(NC(=O)c2cnn3c(C(F)(F)F)cc(-c4ccc(C(F)(F)F)c(OCC)c4)nc23)c1
143 to 144 | Cc1oc(-c2ccccc2)nc1COc1cncc(COc2cccc(CC(=O)O)c2)c1
204 to 206 | O=C(CN1CCOCC1)Oc1ccc2c(=O)c3c(oc2c1)C(=Cc1ccccc1)CC3
> 250 | CC1(C)C(=O)Nc2ccc(C(=O)O)cc21
148 to 150 | NC(=O)N1CCN(c2nn(-c3ccc(F)cc3)c3ccccc23)CC1
112 | CCCc1nc(C)n2ncnc2c1Cc1ccc(-c2ccccc2C#N)cc1
230 | COc1ccc2c(c1CC#N)Sc1c(ccc(OC)c1CN1C(=O)c3ccccc3C1=O)N2Cc1ccccc1
72 to 74 | CCOC(=O)c1cnn2c1c(NCCCN(C)C)nc1ccccc12
186 to 191 | COc1ccc(Nc2ncc(Br)c(Nc3ccc(OC)c(OC)c3OC)n2)c(OC)c1OC
201 to 202 | N=C(N)c1cccc(CN(C(=O)Nc2ccc(-c3ccccc3S(N)(=O)=O)cc2)c2ccccc2)c1
136 to 137 | OC1CCSC(=S)N1c1ccc(Cl)cn1 (stereo unspecified)
104 | O=C(Cc1ccccn1)c1ccc2ncccc2c1
73 to 74 | CC(CO)c1ccc(-c2ccccc2F)cc1 (stereo unspecified)
58 to 65 | CCOC(=O)CCCn1c(C(=O)C2CCN(CCC3(c4ccc(Cl)c(Cl)c4)CCN(C(=O)c4cc(OC)c(OC)c(OC)c4)C3)CC2)nc2ccccc21 (stereo unspecified)
132 to 134 | O=[N+]([O-])c1ccc(-c2ncnn2-c2ccc(F)cc2)cc1
186 to 189 | Cc1ccc(-c2csc(NS(=O)(=O)c3ccc(C)cc3)n2)cc1
205 to 208 | CCOc1cc2cc(C(=O)OC)c(C(=O)OC)c(-c3ccnc(Cl)c3)c2cc1OC

melting point [°C] | Compound
67 to 69 | CC(C)=CCCC(C)=CCOc1ccc(C(=O)NCCc2ccccn2)cc1
99 to 101 | Fc1ccc(CCN2CCC(n3ccc4ccc(Br)cc43)CC2)cc1
108 to 111 | CSC(SC)=C(C(O)C(C)(C)C)n1cncn1 (stereo unspecified)
222 to 226 | COc1ccc2c(c1[N+](=O)[O-])CN(S(C)(=O)=O)CC(=O)N2
230 | CCOC(=O)c1cn(-c2ccc(F)cn2)c2nc(Cl)c(F)cc2c1=O
126 | Cc1cnc2c([N+](=O)[O-])cccc2c1Cl
124 to 126 | C(#CCOCC#CCCn1cnc2cnc3ccccc3c21)CCn1cnc2cnc3ccccc3c21
154 | CCSC(c1ccc(Cl)cc1)C(C(=O)C(C)(C)C)n1cncn1 (stereo unspecified)
281 | Cc1c(C(=O)Nc2ccc(N3CCN(C4CCSCC4)CC3)c(C#N)c2)cnn1-c1ccc(Cl)cc1
137 to 139 | COC(=O)c1nc(-c2cc(F)c([Si](C)(C)C)cc2F)c(F)c(N)c1OC
228 to 230 | COC(=O)Nc1cn2nc(OCc3cc(OC)ccc3OC)ccc2n1
174 to 175 | CNc1cc(N2CCc3ccccc32)cc(C)n1
70 | CC1Cc2c(N)ccc(Cl)c2O1 (stereo unspecified)
137 to 139 | Cc1cc(C)c2cnc(=O)n(CCN(C)C)c2n1
108 | CCC(=O)Oc1cc(OC)cc(OC)c1C(=O)C=Cc1cccn1C
190 to 193 | CC(C)(C)c1ccc(Oc2coc(C(=O)O)cc2=O)cc1
230 | Cc1cccc(C(=O)Nc2nc3ccccc3c(NCc3ccccc3)c2C#N)c1
247 to 249 | Cn1cc(-c2cc3cccnc3[nH]2)c2ccc(C(=O)NC(CO)CO)cc21
